#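 Assay format: 96-well plates, 48-hour exposure. GI50: concentration for 50% inhibition of growth. TGI: concentration producing complete growth inhibition.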
# Experiments:
# Test in all cases: inhibition of tumour cell growth, NCI panel, 48 h
# [1] = test system: 786-0 renal
# [2] = test system: HL-60(TB) leukemia
# [3] = test system: HT29 colon
# [4] = test system: M14 melanoma
# [5] = test system: NCI/ADR-RES ovarian
# [6] = test system: SF-295 CNS
# [7] = test system: U251 CNS
# [8] = test system: UACC-257 melanoma
# [9] = test system: UACC-62 melanoma
# [10] = test system: MCF7 breast
SMILES,GI50 [1] [µM],TGI [1] [µM],GI50 [2] [µM],TGI [2] [µM],GI50 [3] [µM],TGI [3] [µM],GI50 [4] [µM],TGI [4] [µM],GI50 [5] [µM],TGI [5] [µM],GI50 [6] [µM],TGI [6] [µM],GI50 [7] [µM],TGI [7] [µM],GI50 [8] [µM],TGI [8] [µM],GI50 [9] [µM],TGI [9] [µM],TGI [10] [µM],GI50 [10] [µM]
Cc1ccc(Nn2c(SCC(=O)Nc3nc(-c4ccccc4)cs3)nc(C)c2C)cc1,4.41,> 100,4.64,39.1,4.37,28.2,3.7,48.6,3.04,22.2,1.06,5.89,4.5,> 100,2.12,9.29,3.15,> 100,–,–
CCCCCC/C=C\CCCCCCCCCc1cccc(OC)c1O,–,> 100,–,> 100,–,> 100,–,> 100,–,> 100,–,> 100,–,> 100,–,> 100,–,> 100,> 100,–
COc1cc2c3c(n(CCCN=[N+]=[N-])c(=O)c2cc1OC)-c1ccc(NC(C)=O)cc1C3=O,> 50,> 50,15,> 50,> 50,> 50,> 50,> 50,> 50,> 50,8.96,> 50,> 50,> 50,> 50,> 50,> 50,> 50,> 50,> 50
O=C1c2ccccc2-c2c1c1ccc([N+](=O)[O-])cc1c(=O)n2CCN1CCOCC1,> 100,> 100,–,–,> 100,> 100,> 100,> 100,> 100,> 100,92,> 100,49.6,> 100,–,–,82.7,> 100,> 100,43
COc1ccccc1C(=O)Nc1ccc(Cl)c(C(=O)OC(C)C)c1,–,> 100,–,> 65.2,–,88.2,–,> 93.3,–,64.4,–,> 100,–,> 100,–,> 77.1,–,> 63.4,> 100,–
COc1ccc2cn3c4ccc(O)cc4[nH]c(=O)c3c2c1,0.278,13.4,0.111,13,0.273,2.85,0.08,13.7,0.0675,14.2,0.129,12.9,0.153,12.4,8.08,24.2,0.58,18.1,14.6,0.236
O=C(Oc1c(Cl)c(Cl)c(Cl)c(Cl)c1Cl)C1CCCN1C(=O)OCc1ccccc1 (centres undefined),3.94,14.2,2.42,6.09,3.71,12,4,16.4,3.15,11.2,2.75,8.47,3.34,12.6,4.29,17.7,3.24,12.6,11.9,3.16
Cn1c(=S)c2[nH]c(SCc3cccnc3)nc2n(C)c1=O,–,> 100,–,> 100,–,> 100,–,> 100,–,> 100,–,> 100,–,> 100,–,> 100,–,> 100,> 100,–
CCN(CC)CCC(CNc1c(C)cnc2cc(Cl)ccc12)c1ccc(Cl)c(Cl)c1 (centres undefined),2.37,5.74,2.13,5.12,1.14,10.1,1.82,3.63,6.33,21.3,1.67,3.75,2.27,5.43,2.08,3.93,2.18,4.77,4.15,1.79
COc1ccc(C(=O)c2cc(C)c(OC)c(C)c2)c(OC)c1OC(=O)C(Cl)Cl,0.396,> 100,0.0251,0.0719,3.44,> 49.8,0.0229,> 100,0.0324,> 100,0.164,> 25.1,0.0468,> 100,25.6,> 100,0.657,> 100,> 100,0.2
O=C(/C=C/c1cc(O)ccc1O)c1ccc(Cl)cc1,17.8,61,–,–,54.4,> 100,19.8,47.1,19.6,53.9,35.3,> 100,19.6,51.2,51.3,> 100,17.5,40.1,> 100,48.5
CCN1C(=O)N[C@H]2[C@@H]3NC(=O)c4ccc(Cl)n4[C@@H]3C[C@]21O,0.902,9.06,0.242,0.634,0.968,10.4,0.352,2.66,12,89.8,1,4.93,0.329,13.5,–,–,–,–,1.5,0.242
CCC1C[N+]2=C(c3cc(OC)c(OC)cc3CC2)c2c1cc1n2CCc2cc(OC)c(OC)cc2-1 (centres undefined),11,30.1,2.47,10.1,3.23,20.3,3.66,14.6,64.3,> 100,6.37,27.7,2.25,14.5,–,–,1.93,6.03,13.3,1.25
COc1ccc(/C=C\c2cc(OC)c(OC)c(OC)c2)cc1N/C=C\C(=O)c1c[nH]c2ccccc12,< 0.01,> 100,–,–,< 0.01,> 100,< 0.01,47.8,< 0.01,43.3,< 0.01,> 100,< 0.01,47.8,> 100,> 100,4.38,64.2,> 100,< 0.01

# — PubChem BioAssay (NCI)
